Results reported in PubChem BioAssay (NCI).
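Tested at 5 concentrations; 48 h exposure; 96-well plates; endpoints linearly interpolated, else capped at highest concentration. TGI is the concentration that stops growth completely.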

Tests used:
Test in all cases: inhibition of tumour cell growth, NCI panel, 48 h
[1] = system: 786-0 renal
[2] = system: CCRF-CEM leukemia
[3] = system: COLO 205 colon
[4] = system: EKVX NSCLC
[5] = system: HCC-2998 colon
[6] = system: HL-60(TB) leukemia
[7] = system: HOP-62 NSCLC
[8] = system: HT29 colon
[9] = system: KM12 colon
[10] = system: MDA-MB-435
[11] = system: MDA-N
[12] = system: MOLT-4 leukemia
[13] = system: NCI-H23 lung
[14] = system: PC-3 prostate
[15] = system: RPMI-8226 leukemia
[16] = system: RXF 393 renal
[17] = system: SF-268 CNS
[18] = system: SN12C renal
[19] = system: UACC-257 melanoma
[20] = system: SK-OV-3 ovarian

## CCOC(=O)/C(C(=S)NCc1ccccc1)=C(/N)N1CCCC1
[1]
  TGI: > 100 µM
[2]
  TGI: > 100 µM
[3]
  TGI: > 100 µM
[4]
  TGI: > 100 µM
[5]
  TGI: > 100 µM
[6]
  TGI: > 100 µM
[7]
  TGI: > 100 µM
[8]
  TGI: > 100 µM
[9]
  TGI: > 100 µM
[10]
  TGI: > 100 µM
[11]
  TGI: > 100 µM
[12]
  TGI: > 100 µM
[13]
  TGI: > 100 µM
[14]
  TGI: > 100 µM
[15]
  TGI: > 100 µM
[16]
  TGI: > 100 µM
[17]
  TGI: > 100 µM
[18]
  TGI: > 100 µM
[19]
  TGI: > 100 µM

## COC(=O)c1cc(O)c(O)c(O)c1-c1c(O)c(O)c(O)c(SC[C@H](NC(=O)OCc2ccccc2)C(=O)OCc2ccccc2)c1C(=O)OC
[1]
  TGI: 49.6 µM
[2]
  TGI: > 100 µM
[3]
  TGI: 48.4 µM
[4]
  TGI: 50.8 µM
[5]
  TGI: > 100 µM
[6]
  TGI: 39.8 µM
[7]
  TGI: > 100 µM
[8]
  TGI: 86.5 µM
[9]
  TGI: > 100 µM
[10]
  TGI: 44 µM
[11]
  TGI: 47.5 µM
[12]
  TGI: 43.4 µM
[13]
  TGI: 50.3 µM
[14]
  TGI: 62.7 µM
[15]
  TGI: 81.7 µM
[16]
  TGI: > 100 µM
[17]
  TGI: > 100 µM
[20]
  TGI: > 100 µM
[18]
  TGI: 41.8 µM
[19]
  TGI: > 100 µM

## Cc1nc2cc3ccccc3cc2[nH]c1=O
[1]
  TGI: > 100 µM
[2]
  TGI: > 100 µM
[3]
  TGI: > 100 µM
[4]
  TGI: > 100 µM
[5]
  TGI: > 100 µM
[6]
  TGI: > 100 µM
[7]
  TGI: > 100 µM
[8]
  TGI: > 100 µM
[9]
  TGI: > 100 µM
[10]
  TGI: > 100 µM
[11]
  TGI: > 100 µM
[12]
  TGI: > 100 µM
[13]
  TGI: > 100 µM
[14]
  TGI: > 100 µM
[16]
  TGI: > 100 µM
[17]
  TGI: > 100 µM
[20]
  TGI: > 100 µM
[18]
  TGI: > 100 µM
[19]
  TGI: > 100 µM

## COc1cc2cc3c4c(cc(OC)c(OC)c4c2cc1OC)CCN3C
[1]
  TGI: > 50 µM
[2]
  TGI: 7.27 µM
[3]
  TGI: 39.6 µM
[4]
  TGI: > 50 µM
[5]
  TGI: 33.1 µM
[6]
  TGI: 18.7 µM
[7]
  TGI: > 50 µM
[8]
  TGI: > 37.5 µM
[9]
  TGI: > 50 µM
[10]
  TGI: > 23.4 µM
[11]
  TGI: > 50 µM
[12]
  TGI: > 31.4 µM
[13]
  TGI: > 50 µM
[14]
  TGI: > 29.9 µM
[15]
  TGI: 12.9 µM
[16]
  TGI: 12.3 µM
[17]
  TGI: > 50 µM
[20]
  TGI: > 50 µM
[18]
  TGI: > 50 µM
[19]
  TGI: 27.3 µM

## COc1ccc(CCNC(=O)c2ccccc2C2c3ccc(OCc4ccccc4)cc3Oc3cc(OCc4ccccc4)ccc32)cc1OC
[1]
  TGI: > 100 µM
[3]
  TGI: > 100 µM
[4]
  TGI: > 100 µM
[5]
  TGI: > 100 µM
[6]
  TGI: > 100 µM
[7]
  TGI: > 100 µM
[8]
  TGI: > 100 µM
[9]
  TGI: > 100 µM
[10]
  TGI: > 100 µM
[11]
  TGI: > 100 µM
[12]
  TGI: > 100 µM
[13]
  TGI: > 100 µM
[14]
  TGI: > 100 µM
[15]
  TGI: > 100 µM
[16]
  TGI: > 100 µM
[17]
  TGI: > 100 µM
[20]
  TGI: > 100 µM
[18]
  TGI: > 100 µM
[19]
  TGI: > 100 µM

## O=[N+]([O-])c1cc(-[n+]2cc([O-])on2)ccc1Cl
[1]
  TGI: 60.3 µM
[2]
  TGI: 62.4 µM
[3]
  TGI: > 100 µM
[4]
  TGI: 37.8 µM
[5]
  TGI: 34.9 µM
[6]
  TGI: > 100 µM
[7]
  TGI: 30.1 µM
[8]
  TGI: 28.5 µM
[9]
  TGI: 54.9 µM
[10]
  TGI: > 100 µM
[11]
  TGI: 39.9 µM
[13]
  TGI: 26.6 µM
[14]
  TGI: > 100 µM
[15]
  TGI: 79.8 µM
[16]
  TGI: 27.9 µM
[17]
  TGI: 78.3 µM
[20]
  TGI: > 100 µM
[18]
  TGI: 29.8 µM
[19]
  TGI: 27.5 µM
